# Earlier results, collected in patent US7670620B2, “Topical composition for the treatment of psoriasis and related skin disorders” (Bioderm, Inc., priority 2000, dated 2010).
# Tested on: fibroblasts
# Details: in vitro; Karzel and Domenjoz 1971
row,SMILES,Secretion of mucopolysaccharides by fibroblasts
1,CC(=O)N[C@H]1C(O)O[C@H](CO)[C@H](O)[C@@H]1O (stereo partly drawn) [N-acetylgalactosamine],"also worked, but to a lesser degree"
2,CC(=O)N[C@H]1C(O)O[C@H](CO)[C@@H](O)[C@@H]1O (stereo partly drawn) [N-acetylglucosamine],"also worked, but to a lesser degree"
3,N[C@H]1C(O)O[C@H](CO)[C@@H](O)[C@@H]1O (stereo partly drawn) [glucosamine],significantly increases secretion of mucopolysaccharides by fibroblasts
